Bridge positions count the residues as written; N and C are the ends. Square brackets hold non-standard residues; d marks the D form. Peptide text beside a SMILES is read from it. * marks the point of attachment. ξ: configuration not given here. Bip = N[C@@H](Cc1ccc(-c2ccccc2)cc1)C(=O)O; Phe(3-Me) = Cc1cccc(C[C@H](N)C(=O)O)c1; hArg = N=C(N)NCCCC[C@H](N)C(=O)O; Cha = N[C@@H](CC1CCCCC1)C(=O)O; Cit = NC(=O)NCCC[C@H](N)C(=O)O; Thr(3ξ) = CC(O)[C@H](N)C(=O)O; NMeNle = CCCC[C@H](NC)C(=O)O; 12Ado = NCCCCCCCCCCCC(=O)O; Carboxymethyl = O=C(O)C*; Orn = NCCC[C@H](N)C(=O)O; Aun = NCCCCCCCCCCC(=O)O; Dab = NCC[C@H](N)C(=O)O; Piv = CC(C)(C)C(=O)*

In patent publication US20260022142A1, “MACROCYCLIC IMMUNOMODULATORS” (Bristol-Myers Squibb Company, priority 2022, published 2026) one finds IC50 data, which are given here for 9 compounds.

T1 sequence (Q15116 25-288): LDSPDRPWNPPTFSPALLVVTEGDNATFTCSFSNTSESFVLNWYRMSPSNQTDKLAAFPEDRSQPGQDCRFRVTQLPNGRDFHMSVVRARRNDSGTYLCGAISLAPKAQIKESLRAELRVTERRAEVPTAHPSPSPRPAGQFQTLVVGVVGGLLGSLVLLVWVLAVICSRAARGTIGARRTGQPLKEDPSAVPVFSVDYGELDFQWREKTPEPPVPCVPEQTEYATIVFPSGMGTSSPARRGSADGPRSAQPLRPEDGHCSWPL

The assay addresses T1, PD-1/PD-L1 interaction (PE-labeled human PD-L1-Ig binding to Jurkat cell line over-expressing human PD-1) (Homo sapiens, UniProt Q15116).
T1 construct: expressed in transfected cells; host or cells: Jurkat
Nature of the assay: Jurkat-PD-1 Cell Binding High-Content Screening Assay (CBA). In kind it is cell-based. Conditions: Jurkat cell line over-expressing human PD-1; PE-labeled PD-L1-Ig 20 nM final; read-out: Jurkat hPD1-PDL1 IC50. The method, boiled down: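 Binding of fluorescent PD-L1-Ig (20 nM final) to Jurkat-PD-1 cells was measured by automated imaging after 1 h, following a 2 h compound pre-treatment at 37° C.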
A word on the IC50: it is the midpoint of a concentration-inhibition curve. Regarding `CC(=O)NCCCC[C@@H]1NC(=O)[C@H](Cc2ccc(-c3ccccc3)cc2)NC(=O)[C@H](C(C)C)NC(=O)[C@H](Cc2cccc(C)c2)NC(=O)[C@H](CC(=O)O)NC(=O)[C@H](Cc2ccc(OCC(=O)O)cc2)NC(=O)[C@H](CCCNC(=N)N)NC(=O)CSC[C@@H](C(=O)N[C@H](CC(N)=O)C(=O)NCCCCCCCCCCC(=O)O)NC(=O)[C@H](C(C)O)NC(=O)[C@H](C(C)C)NC(=O)[C@H](CC2CCCCC2)NC(=O)[C@H](CCN)NC(=O)[C@@H](CC(C)C)NC(=O)[C@H](CCCN)NC1=O` (stereo partly drawn) [Compound 3548] ({CH2CO}-RY(Carboxymethyl)D[Phe(3-Me)]V[Bip]K(Ac)[Orn][dL][Dab][Cha]V[Thr(3ξ)]C[dN][Aun]-OH; thioether N-14), the 50% inhibitory concentration (IC50) amounted to 11.1 nM.
Take `Cc1cccc(C[C@@H]2NC(=O)[C@H](CC(=O)O)NC(=O)[C@H](Cc3ccc(OCC(=O)O)cc3)NC(=O)[C@H](CCCNC(=N)N)NC(=O)CSC[C@@H](C(=O)N[C@@H](CCCCN)C(=O)N[C@@H](CO)C(=O)NCCCCCCCCCCCC(=O)O)NC(=O)[C@H](C(C)O)NC(=O)[C@H](C(C)C)NC(=O)[C@H](CC3CCCCC3)NC(=O)[C@H](CCN)NC(=O)[C@@H](CC(C)C)NC(=O)[C@H](CCCN)NC(=O)[C@H](CCCNC(N)=O)NC(=O)[C@H](Cc3ccc(-c4ccccc4)cc3)NC(=O)[C@H](C(C)C)NC2=O)c1` (stereo partly drawn) [Compound 3549] ({CH2CO}-RY(Carboxymethyl)D[Phe(3-Me)]V[Bip][Cit][Orn][dL][Dab][Cha]V[Thr(3ξ)]CKS[12Ado]-OH; thioether N-14): the IC50 amounted to 37 nM.
With `Cc1cccc(C[C@@H]2NC(=O)[C@H](CC(=O)O)NC(=O)[C@H](Cc3ccc(OCC(=O)O)cc3)NC(=O)[C@H](CCCNC(=N)N)NC(=O)CSC[C@@H](C(=O)N[C@@H](CCCCN)C(=O)N[C@@H](CO)C(=O)NCCCCCCCCCCCC(=O)O)NC(=O)[C@H](C(C)O)NC(=O)[C@H](C(C)C)NC(=O)[C@H](CC3CCCCC3)NC(=O)[C@H](CCN)NC(=O)[C@@H](CC(C)C)NC(=O)[C@H](CCCN)NC(=O)[C@H](CCCNC(=N)N)NC(=O)[C@H](Cc3ccc(-c4ccccc4)cc3)NC(=O)[C@H](Cc3ccc(O)cc3)NC2=O)c1` (stereo partly drawn) [Compound 3550] ({CH2CO}-RY(Carboxymethyl)D[Phe(3-Me)]Y[Bip]R[Orn][dL][Dab][Cha]V[Thr(3ξ)]CKS[12Ado]-OH; thioether N-14), the IC50 came to 76.2 nM.
In the case of `Cc1cccc(C[C@@H]2NC(=O)[C@H](CC(=O)O)NC(=O)[C@H](Cc3ccc(OCC(=O)O)cc3)NC(=O)[C@H](CCCCNC(=N)N)NC(=O)CSC[C@@H](C(=O)N[C@@H](CCN)C(=O)NCCCCCCCCCCCC(=O)O)NC(=O)[C@H](C(C)O)NC(=O)[C@H](C(C)C)NC(=O)[C@H](CC3CCCCC3)NC(=O)[C@H](CCN)NC(=O)[C@@H](CC(C)C)NC(=O)[C@H](CCCN)NC(=O)[C@H](CCCNC(N)=O)NC(=O)[C@H](Cc3ccc(-c4ccccc4)cc3)NC(=O)[C@H](C(C)C)NC2=O)c1` (stereo partly drawn) [Compound 3551] ({CH2CO}-[hArg]Y(Carboxymethyl)D[Phe(3-Me)]V[Bip][Cit][Orn][dL][Dab][Cha]V[Thr(3ξ)]C[Dab][12Ado]-OH; thioether N-14), the IC50 is 33.4 nM.
For the compound `Cc1cccc(C[C@@H]2NC(=O)[C@H](CC(=O)O)NC(=O)[C@H](Cc3ccc(OCC(=O)O)cc3)NC(=O)[C@H](CCCCNC(=N)N)NC(=O)CSC[C@@H](C(=O)N[C@H](CCC(=O)O)C(=O)NCCCCCCCCCCCC(=O)O)NC(=O)[C@H](C(C)O)NC(=O)[C@H](C(C)C)NC(=O)[C@H](CC3CCCCC3)NC(=O)[C@H](CCN)NC(=O)[C@@H](CC(C)C)NC(=O)[C@H](CCCN)NC(=O)[C@H](CCCNC(N)=O)NC(=O)[C@H](Cc3ccc(-c4ccccc4)cc3)NC(=O)[C@H](C(C)C)NC2=O)c1` (stereo partly drawn) [Compound 3552] ({CH2CO}-[hArg]Y(Carboxymethyl)D[Phe(3-Me)]V[Bip][Cit][Orn][dL][Dab][Cha]V[Thr(3ξ)]C[dE][12Ado]-OH; thioether N-14), the IC50 stood at 20.5 nM.
Consider `Cc1cccc(C[C@@H]2NC(=O)[C@H](CC(=O)O)NC(=O)[C@H](Cc3ccc(OCC(=O)O)cc3)NC(=O)[C@H](C(C)O)NC(=O)CSC[C@@H](C(=O)N[C@H](CCC(=O)O)C(=O)NCCCCCCCCCCCC(=O)O)NC(=O)[C@H](C(C)O)NC(=O)[C@H](C(C)C)NC(=O)[C@H](CC3CCCCC3)NC(=O)[C@H](CCN)NC(=O)[C@@H](CC(C)C)NC(=O)[C@H](CCCN)NC(=O)[C@H](CCCNC(N)=O)NC(=O)[C@H](Cc3ccc(-c4ccccc4)cc3)NC(=O)[C@H](C(C)C)NC2=O)c1` (stereo partly drawn) [Compound 3553] ({CH2CO}-[Thr(3ξ)]Y(Carboxymethyl)D[Phe(3-Me)]V[Bip][Cit][Orn][dL][Dab][Cha]V[Thr(3ξ)]C[dE][12Ado]-OH; thioether N-14), for which the IC50 stood at 37.3 nM.
For the compound `Cc1cccc(C[C@@H]2NC(=O)[C@H](CC(=O)O)NC(=O)[C@H](Cc3ccc(OCC(=O)O)cc3)NC(=O)[C@H](C(C)O)NC(=O)CSC[C@@H](C(=O)N[C@@H](CCN)C(=O)NCCCCCCCCCCC(=O)O)NC(=O)[C@H](C(C)O)NC(=O)[C@H](C(C)C)NC(=O)[C@H](CC3CCCCC3)NC(=O)[C@H](CCN)NC(=O)[C@@H](CC(C)C)NC(=O)[C@H](CCCNC(=N)N)NC(=O)[C@H](CCCNC(N)=O)NC(=O)[C@H](Cc3ccc(-c4ccccc4)cc3)NC(=O)[C@H](C(C)C)NC2=O)c1` (stereo partly drawn) [Compound 3554] ({CH2CO}-[Thr(3ξ)]Y(Carboxymethyl)D[Phe(3-Me)]V[Bip][Cit]R[dL][Dab][Cha]V[Thr(3ξ)]C[Dab][Aun]-OH; thioether N-14), the IC50 was 18.4 nM.
Regarding `CCCC[C@H]1C(=O)N[C@@H](Cc2ccc(OCC(=O)O)cc2)C(=O)N[C@@H](CC(=O)O)C(=O)N[C@@H](Cc2cccc(C)c2)C(=O)N[C@@H](C(C)C)C(=O)N[C@@H](Cc2ccc(-c3ccccc3)cc2)C(=O)N[C@@H](CCCNC(N)=O)C(=O)N[C@@H](CCCN)C(=O)N[C@H](CC(C)C)C(=O)N[C@@H](CCN)C(=O)N[C@@H](CC2CCCCC2)C(=O)N[C@@H](C(C)C)C(=O)N[C@@H](C(C)O)C(=O)N[C@H](C(=O)N[C@@H](CCN)C(=O)NCCCCCCCCCCC(=O)O)CSCC(=O)N1C` (stereo partly drawn) [Compound 3555] ({CH2CO}-[NMeNle]Y(Carboxymethyl)D[Phe(3-Me)]V[Bip][Cit][Orn][dL][Dab][Cha]V[Thr(3ξ)]C[Dab][Aun]-OH; thioether N-14), the IC50 was 42.8 nM.
For `Cc1cccc(C[C@@H]2NC(=O)[C@H](CC(=O)O)NC(=O)[C@H](Cc3ccc(OCC(=O)O)cc3)NC(=O)[C@H](CCCNC(=N)N)NC(=O)CSC[C@@H](C(=O)N[C@@H](CCN)C(=O)NCCCCCCCCCCC(=O)O)NC(=O)[C@H](C(C)O)NC(=O)[C@H](C(C)C)NC(=O)[C@H](CC3CCCCC3)NC(=O)[C@H](CCN)NC(=O)[C@@H](CC(C)C)NC(=O)[C@H](CCCN)NC(=O)[C@H](CCCCNC(=O)C(C)(C)C)NC(=O)[C@H](Cc3ccc(-c4ccccc4)cc3)NC(=O)[C@H](Cc3ccc(O)cc3)NC2=O)c1` (stereo partly drawn) [Compound 3556] ({CH2CO}-RY(Carboxymethyl)D[Phe(3-Me)]Y[Bip]K(Piv)[Orn][dL][Dab][Cha]V[Thr(3ξ)]C[Dab][Aun]-OH; thioether N-14), the IC50 was found to be 13.2 nM.
